Measurements published in publication PMC12259270, “Sensory neuron–expressed FGF13 controls nociceptive signaling in diabetic neuropathy models” (The Journal of Clinical Investigation, 2025).
Residues, ends and D or L forms follow the SMILES beside them. *: point of attachment. Cbz = O=C(OCc1ccccc1)*; OtBu = CC(C)(C)O*

System: C57BL/6 mice
Test: Capsaicin-induced mechanical hypersensitivity (von Frey)
Assay type: in vivo, mouse
Parameters: LVF Mean / HVF Mean / MECHANICAL LVF / MECHANICAL HVF: unit not given here
Text: FGF13 is a neuronal gene ubiquitously transcribed in DRG neuronal subtypes ([43]–[46]). To investigate neuronal subtype enrichment of the FGF13 transcript, we examined a gene panel including FGF13, SCN9A, and several marker genes in mouse single-cell transcriptomic data (Supplemental Figure 10) ([43]–[46]). […] Critically, putative silent nociceptors marked by somatostatin (SST), and the nicotinic cholinergic receptor α-3 subunit (CHRNA3) contribute to development of inflammatory mechanical hyperalgesia ([47]). […] We next determined if PW164 modulation of the FGF13/Nav1.7 complex could suppress nociceptive behaviors in WT mice. We tested whether intraplantar (i.pl.) injection (5 μL) of PW164 altered hind paw withdrawal in response to low or high intensity von Frey filament (LVF or HVF, respectively) mechanical stimulation (Figure 3A). […] Next, we evaluated PW164’s effect on mechanical and thermal hindpaw sensitivity in capsaicin-induced nociceptive hypersensitivity models. […] Next, we performed in vivo target validation in WT mice that received an intrathecal (i.t.) injection in L5 of AAV2-shFGF13 (6 μL, viral titers 1 × 10^12 vector genomes (vg)/mL); a control group received an equal number of AAV2-shCTRL particles (Figure 3C).
Experiments were performed on 6- to 12-week-old male C57BL/6 mice (The Jackson Laboratory, Bar Harbor, ME) housed in the AAALAC-accredited facility at the University of Texas Medical Branch. Mice were group-housed with up to 5 mice per cage on a 12-to-12-hour light–dark cycle and had access to water and food ad libitum. All protocols were approved by the Institutional Animal Care and Use Committee (IACUC) at the University of Texas Medical Branch and in accordance with the National Institutes of Health (NIH) guidelines.
PW164 and ZL192 were dissolved in DMSO and saline in a ratio of 1:10. 0.1% capsaicin (10% ethanol, 10% Tween-20 in saline; Sigma-Aldrich). All the compounds were injected at the center of the hind paw. The control group received a DMSO-saline mixture. […]
Bupivacaine was prepared from a 1:2 dilution with sterile 0.9% saline and locally injected in the center of the paw at 7 mg/ml.
AAV2 viral particles packaged by the University of North Carolina Gene Therapy Core Facility (viral titer ranging […]
Before intrathecal injections in the lumbar region, mice were maintained in an anesthetizing box with 2% isoflurane to induce unconsciousness. Six microliters of viral vector were gently injected into the CSF through a 30-gauge needle with a Hamilton syringe in the lumbar area between vertebrae L4 and L5 by gently gripping the iliac crest of the mouse and inserting the needle with an angle of 45°. The correct procedure was confirmed by the mouse’s tail reflexiv e flick.
Assessment of mechanical sensitivity
Mechanical sensitivity was assessed using von Frey filaments (VFF 0.1g and 1.0 g force) in mice that were either naïve or received intraplantar (i.p.) injection of capsaicin. VFFs were applied at the injection site (capsaicin or […]

[1] = Cap + PW164 0.07 mg/mL, Time (h) 0
[2] = Cap + PW164 0.07 mg/mL, Time (h) 0.5
[3] = Cap + PW164 0.07 mg/mL, Time (h) 1
[4] = Cap + PW164 0.07 mg/mL, Time (h) 1.5
[5] = Cap + PW164 0.07 mg/mL, Time (h) 2
[6] = Cap + PW164 0.07 mg/mL, Time (h) 3
[7] = Cap + PW164 0.21 mg/mL, Time (h) 0
[8] = Cap + PW164 0.21 mg/mL, Time (h) 0.5
[9] = Cap + PW164 0.21 mg/mL, Time (h) 1
[10] = Cap + PW164 0.21 mg/mL, Time (h) 1.5
[11] = Cap + PW164 0.21 mg/mL, Time (h) 2
[12] = Cap + PW164 0.21 mg/mL, Time (h) 3
[13] = Cap + PW164 0.7 mg/mL, Time (h) 0
[14] = Cap + PW164 0.7 mg/mL, Time (h) 0.5
[15] = Cap + PW164 0.7 mg/mL, Time (h) 1
[16] = Cap + PW164 0.7 mg/mL, Time (h) 1.5
[17] = Cap + PW164 0.7 mg/mL, Time (h) 2
[18] = Cap + PW164 0.7 mg/mL, Time (h) 3
[19] = Figure 3 D, AAV2-Control mice after Cap, 0.h min PW164
[20] = Figure 3 D, AAV2-Control mice after Cap, 1h PW164
[21] = Figure 3 D, AAV2-Control mice after Cap, 2h PW164
[22] = Figure 3 D, AAv2-shFGF13 mice after Cap, 0.h min PW164
[23] = Figure 3 D, AAv2-shFGF13 mice after Cap, 1h PW164
[24] = Figure 3 D, AAv2-shFGF13 mice after Cap, 2h PW164

COC(=O)[C@@H](NC(=O)[C@H](CCC(=O)OC(C)(C)C)NC(=O)[C@H](CC(C)C)NC(=O)[C@@H]1CCCN1C(=O)OCc1ccccc1)C(C)C [PW164] (Cbz-PLE(OtBu)V-OMe)
HVF Mean [1]: 50 | LVF Mean [1]: 0 | HVF Mean [2]: 100 | LVF Mean [2]: 62.5 | HVF Mean [3]: 97.5 | LVF Mean [3]: 62.5 | HVF Mean [4]: 85 | LVF Mean [4]: 45 | HVF Mean [5]: 87.5 | LVF Mean [5]: 35 | HVF Mean [6]: 83.75 | LVF Mean [6]: 32.5 | HVF Mean [7]: 51.6667 | LVF Mean [7]: 0 | HVF Mean [8]: 100 | LVF Mean [8]: 60 | HVF Mean [9]: 78.3333 | LVF Mean [9]: 40 | HVF Mean [10]: 83.3333 | LVF Mean [10]: 35 | HVF Mean [11]: 90 | LVF Mean [11]: 30 | HVF Mean [12]: 98.3333 | LVF Mean [12]: 38.3333 | HVF Mean [13]: 50 | LVF Mean [13]: 0 | HVF Mean [14]: 100 | LVF Mean [14]: 61.6667 | HVF Mean (Cap + PW164 0.7 mg/mL, Time (h) 0.75): 80 | HVF Mean [15]: 63.3333 | LVF Mean [15]: 20 | HVF Mean [16]: 63.3333 | LVF Mean [16]: 13.3333 | HVF Mean [17]: 68.3333 | LVF Mean [17]: 21.6667 | HVF Mean [18]: 86.6667 | LVF Mean [18]: 31.6667 | HVF Mean [19]: 43.3333 | LVF Mean [19]: 14.17 | HVF Mean [20]: 50 | LVF Mean [20]: 13.33 | HVF Mean [21]: 45.8333 | LVF Mean [21]: 9.17 | HVF Mean [22]: 41.5152 | LVF Mean [22]: 9.09 | HVF Mean [23]: 37.9091 | LVF Mean [23]: 9.39 | HVF Mean [24]: 41.2121 | LVF Mean [24]: 11.52 | duration of analgesic effect (PW164 0.7 mg/mL i.pl., naive and AAV2-shCTRL mice after capsaicin): at least 2 hours | mechanical sensitivity in AAV2-shFGF13 mice after capsaicin (PW164 5 μL, 0.7mg/mL hind paw): did not further modify | capsaicin-induced mechanical sensitivity (PW164 at the capsaicin injection site, 30 minutes post-capsaicin): inhibited | lowest concentration with dose-dependent antihyperalgesic effect (i.pl., capsaicin model): 0.21 mg/mL
